Assay results reported in the supplement of paper PMC11061612.

Columns and labels:
Olaparib = compound: O=C(c1cc(Cc2n[nH]c(=O)c3ccccc23)ccc1F)N1CCN(C(=O)C2CC2)CC1 [Olaparib]; details: max 10 µM
Procedure, shortened: (§1)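 Viability was measured with CellTiter-Glo 2.0 luminescence after 72 hours of dosing at a final DMSO of typically 0.2%, and scaled between blank-well and DMSO-well means. Beforehand, cancer cell lines sat 24 hours at 37°C and 5% CO2 in 1536-well plates in 7.5 μl DMEM/F12 or RPMI with 10% FBS. A non-linear mixed effects model fitted two-parameter logistic curves to the dose responses. The single-agent IC50 comes from these fits.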

Alisertib = compound: COc1cc(Nc2ncc3c(n2)-c2ccc(Cl)cc2C(c2c(F)cccc2OC)=NC3)ccc1C(=O)O [Alisertib]; details: max 10 µM
Procedure, shortened: as §1

AZD4320 = compound: CN(CC[C@H](CSC1=CC=CC=C1)NC2=C(C=C(C=C2)S(=O)(=O)NC(=O)C3=CC=C(C=C3)N4CCC(CC4)[C@H](C5=CC=CC=C5C6=CC=C(C=C6)Cl)O)S(=O)(=O)C(F)(F)F)CCO [AZD4320]; details: max 1 µM
Procedure, shortened: as §1

AZD0156 = compound: CN(C)CCCOc1ccc(-c2ccc3ncc4c(c3c2)n(C2CCOCC2)c(=O)n4C)cn1 [AZD0156]
Procedure, shortened: as §1

Selumetinib = compound: Cn1cnc2c(F)c(Nc3ccc(Br)cc3Cl)c(C(=O)NOCCO)cc21 [Selumetinib]; details: max 10 µM
Procedure, shortened: as §1

Trametinib = compound: CC(=O)Nc1cccc(-n2c(=O)n(C3CC3)c(=O)c3c(Nc4ccc(I)cc4F)n(C)c(=O)c(C)c32)c1 [Trametinib]; details: max 1 µM
Procedure, shortened: as §1

AZD6738 = compound: C[C@@H]1COCCN1C2=NC(=NC(=C2)C3(CC3)[S@](=N)(=O)C)C4=C5C=CNC5=NC=C4 [AZD6738]; details: max 10 µM
Procedure, shortened: as §1

Lapatinib = compound: CS(=O)(=O)CCNCc1ccc(-c2ccc3ncnc(Nc4ccc(OCc5cccc(F)c5)c(Cl)c4)c3c2)o1 [Lapatinib]; details: max 10 µM
Procedure, shortened: as §1

Crizotinib = compound: C[C@@H](Oc1cc(-c2cnn(C3CCNCC3)c2)cnc1N)c1c(Cl)ccc(F)c1Cl [Crizotinib]; details: max 10 µM
Procedure, shortened: as §1

AZD7648 = compound: Cc1cc2ncnn2cc1Nc1ncc2c(n1)n(C1CCOCC1)c(=O)n2C [AZD7648]; details: max 10 µM
Procedure, shortened: as §1

AZD5991 = compound: Cc1c2c(nn1C)CSCc1cc(n(C)n1)CSc1cc(c3ccccc3c1)OCCCc1c(C(=O)O)n(C)c3c-2c(Cl)ccc13 [AZD5991]; details: max 1 µM
Procedure, shortened: as §1

SN-38 = compound: CCc1c2c(nc3ccc(O)cc13)-c1cc3c(c(=O)n1C2)COC(=O)[C@]3(O)CC [SN-38]; details: max 0.3 µM
Procedure, shortened: as §1

Taselisib = compound: Cc1nc(-c2cn3c(n2)-c2ccc(-c4cnn(C(C)(C)C(N)=O)c4)cc2OCC3)n(C(C)C)n1 [Taselisib]; details: max 10 µM
Procedure, shortened: as §1

Capivasertib = compound: C1CN(CCC1(C(=O)N[C@@H](CCO)C2=CC=C(C=C2)Cl)N)C3=NC=NC4=C3C=CN4 [Capivasertib]
Procedure, shortened: as §1

AZD5153 = compound: COc1nnc2ccc(N3CCC(c4ccc(OCCN5CCN(C)C(=O)[C@H]5C)cc4)CC3)nn12 [AZD5153]; details: max 1 µM
Procedure, shortened: as §1

Palbociclib = compound: CC(=O)c1c(C)c2cnc(Nc3ccc(N4CCNCC4)cn3)nc2n(C2CCCC2)c1=O [Palbociclib]; details: max 10 µM
Procedure, shortened: as §1

Prexasertib = compound: COc1cccc(OCCCN)c1-c1cc(Nc2cnc(C#N)cn2)n[nH]1 [Prexasertib]; details: max 1 µM
Procedure, shortened: as §1

Savolitinib = compound: C[C@@H](c1ccc2nccn2c1)n1nnc2ncc(-c3cnn(C)c3)nc21 [Savolitinib]; details: max 1 µM
Procedure, shortened: as §1

Gefitinib = compound: COc1cc2ncnc(Nc3ccc(F)c(Cl)c3)c2cc1OCCCN1CCOCC1 [Gefitinib]; details: max 10 µM
Procedure, shortened: as §1

SG3199 = compound: CC1=CN2[C@@H](C1)C=NC3=CC(=C(C=C3C2=O)OC)OCCCCCOC4=C(C=C5C(=C4)N=C[C@@H]6CC(=CN6C5=O)C)OC [SG3199]; details: max 0.001 µM
Procedure, shortened: as §1

AZD1390 = compound: CC(C)n1c(=O)n(C)c2cnc3cc(F)c(-c4ccc(OCCCN5CCCCC5)nc4)cc3c21 [AZD1390]; details: max 0.3 µM
Procedure, shortened: as §1

Venetoclax = compound: CC1(C)CCC(CN2CCN(c3ccc(C(=O)NS(=O)(=O)c4ccc(NCC5CCOCC5)c([N+](=O)[O-])c4)c(Oc4cnc5[nH]ccc5c4)c3)CC2)=C(c2ccc(Cl)cc2)C1 [Venetoclax]; details: max 1 µM
Procedure, shortened: as §1

AZD8186 = compound: C[C@@H](Nc1cc(F)cc(F)c1)c1cc(C(=O)N(C)C)cc2c(=O)cc(N3CCOCC3)oc12 [AZD8186]; details: max 3 µM
Procedure, shortened: as §1

AZD2811 = compound: CCN(CCO)CCCOc1ccc2c(Nc3cc(CC(=O)Nc4cccc(F)c4)[nH]n3)ncnc2c1 [AZD2811]; details: max 1 µM
Procedure, shortened: as §1

Doxorubicin = compound: COc1cccc2c1C(=O)c1c(O)c3c(c(O)c1C2=O)C[C@@](O)(C(=O)CO)C[C@@H]3O[C@H]1C[C@H](N)[C@H](O)[C@H](C)O1 [Doxorubicin]; details: max 1 µM
Procedure, shortened: as §1

Dasatinib = compound: CC1=C(C(=CC=C1)Cl)NC(=O)C2=CN=C(S2)NC3=CC(=NC(=N3)C)N4CCN(CC4)CCO [Dasatinib]; details: max 2 µM
Procedure, shortened: as §1

AZD1775 = compound: C=CCn1c(=O)c2cnc(Nc3ccc(N4CCN(C)CC4)cc3)nc2n1-c1cccc(C(C)(C)O)n1 [AZD1775]
Procedure, shortened: as §1

Cell Line | IC50, cell viability 72 h (Olaparib) [nM] | IC50, cell viability 72 h (Alisertib) [nM] | IC50, cell viability 72 h (AZD4320) [nM] | IC50, cell viability 72 h (AZD0156; max 3 µM) [nM] | IC50, cell viability 72 h (Selumetinib) [nM] | IC50, cell viability 72 h (Trametinib) [nM] | IC50, cell viability 72 h (AZD6738) [nM] | IC50, cell viability 72 h (Lapatinib) [nM] | IC50, cell viability 72 h (Crizotinib) [nM] | IC50, cell viability 72 h (AZD7648) [nM] | IC50, cell viability 72 h (AZD5991) [nM] | IC50, cell viability 72 h (SN-38) [nM] | IC50, cell viability 72 h (Taselisib) [nM] | IC50, cell viability 72 h (Capivasertib; max 10 µM) [nM] | IC50, cell viability 72 h (AZD5153) [nM] | IC50, cell viability 72 h (Palbociclib) [nM] | IC50, cell viability 72 h (Prexasertib) [nM] | IC50, cell viability 72 h (Savolitinib) [nM] | IC50, cell viability 72 h (Gefitinib) [nM] | IC50, cell viability 72 h (SG3199) [nM] | IC50, cell viability 72 h (AZD1390) [nM] | IC50, cell viability 72 h (Venetoclax) [nM] | IC50, cell viability 72 h (AZD8186) [nM] | IC50, cell viability 72 h (AZD2811) [nM] | IC50, cell viability 72 h (Doxorubicin) [nM] | IC50, cell viability 72 h (Dasatinib) [nM] | IC50, cell viability 72 h (AZD1775; max 3 µM) [nM] | IC50, cell viability 72 h (Capivasertib; max 3 µM) [nM] | IC50, cell viability 72 h (AZD0156; max 1 µM) [nM] | IC50, cell viability 72 h (AZD1775; max 1 µM) [nM]
HCC2157 (Breast Carcinoma) | > 10000 | 454 | 72.1 | > 3000 | > 10000 | > 1000 | 2490 | 60.2 | 4090 | > 10000 | 24.4 | 14.1 | 222 | 307 | 12.6 | > 10000 | 22.5 | > 1000 | 4410 | > 1 | > 300 | > 1000 | 667 | 182 | > 1000 | > 2000 | > 3000 |  |  | 
HPAC (Pancreatic Carcinoma) | > 10000 | 3960 | > 1000 | > 3000 | 3160 | 22.7 | > 10000 | > 10000 | 6650 | > 10000 | > 1000 | > 300 | 2380 | > 10000 | 579 | > 10000 | 81.6 | > 1000 | > 10000 | > 1 | > 300 | > 1000 | > 3000 | > 1000 | > 1000 | > 2000 | 1500 |  |  | 
IGR-1 (Melanoma) | > 10000 | > 10000 | > 1000 | > 3000 | > 10000 | > 1000 | > 10000 | 8830 | 6250 | > 10000 | > 1000 | > 300 | > 10000 | > 10000 | > 1000 | > 10000 | 617 | > 1000 | > 10000 | > 1 | > 300 | > 1000 | > 3000 | > 1000 | > 1000 | > 2000 | > 3000 |  |  | 
J82 (Bladder Carcinoma) | > 10000 | > 10000 | > 1000 | > 3000 | > 10000 | > 1000 | > 10000 | > 10000 | > 10000 | > 10000 | > 1000 | 80.5 | > 10000 | > 10000 | > 1000 | > 10000 | > 1000 | > 1000 | > 10000 | > 1 | > 300 | > 1000 | > 3000 | > 1000 | > 1000 | > 2000 | > 3000 |  |  | 
JiyoyeP-2003 (Burkitt's Lymphoma) | > 10000 | 271 | 403 | > 3000 | > 10000 | > 1000 | 1370 | > 10000 | > 10000 | > 10000 | 814 | 14.1 | 9670 | 2320 | 49.2 | 4700 | 11.7 | > 1000 | > 10000 | > 1 | > 300 | > 1000 | > 3000 | > 1000 | 172 | 1020 | 597 |  |  | 
LU-99A (Non-Small Cell Lung Carcinoma) | > 10000 | > 10000 | > 1000 | > 3000 | > 10000 | 163 | > 10000 | > 10000 | > 10000 | > 10000 | > 1000 | 39.7 | 3080 | > 10000 | > 1000 | > 10000 | 77.1 | > 1000 | > 10000 | > 1 | > 300 | > 1000 | > 3000 | > 1000 | 577 | 1510 | > 3000 |  |  | 
NB(TU)1-10 (Neuroblastoma) | > 10000 |  |  | > 3000 |  |  | 6880 |  |  | > 10000 |  | 17 |  |  |  |  | 8.06 |  |  | > 1 |  |  |  | > 1000 | 468 |  | 835 | > 3000 |  | 
NCI-H1694 (Small Cell Lung Carcinoma) | > 10000 | > 10000 | 462 |  | > 10000 | > 1000 | 9060 | > 10000 | > 10000 | > 10000 | 109 | 3.95 | > 10000 | > 10000 | > 1000 | > 10000 | 66.9 | > 1000 | > 10000 | > 1 | > 300 | > 1000 | > 3000 | > 1000 | 727 | > 2000 |  |  | > 1000 | > 1000
